# Results published in ChEMBL document CHEMBL6096652, “Design, synthesis and anti-tumor evaluation of novel pyrimidine and quinazoline analogues” (Eur J Med Chem, 2025).
# Assays:
# [1] = system: HepG2; test: Antiproliferative activity against human HepG2 cells incubated for 48 hrs by MTT assay; assay type: functional, cell-based; details: HepG2, 48 h
# [2] = system: MCF7; test: Antiproliferative activity against human MCF7 cells incubated for 48 hrs by MTT assay; assay type: functional, cell-based; details: MCF7, 48 h
# [3] = system: A549; test: Antiproliferative activity against human A549 cells incubated for 48 hrs by MTT assay; assay type: functional, cell-based; details: A549, 48 h
# [4] = system: B16-F10; test: Antiproliferative activity against mouse B16-F10 cells incubated for 48 hrs by MTT assay; assay type: functional, cell-based; details: B16-F10, 48 h
# [5] = system: B16-F10; test: Antitumor activity against mouse B16-F10 cells implanted in C57BL/6 mouse at 10 mg/kg measured after 10 days relative to control; assay type: functional; details: B16-F10, 240 h, time 10 day, read-out: TGI
# [6] = system: B16-F10; test: Inhibition of cell migration in mouse B16-F10 cells assessed as recovery of scratch area at 50 nM incubated for 24 hrs by wound healing assay (reference value: 72.97 %); assay type: functional; set-up: scale not given: the % may be the effect or the level left
SMILES,IC50 [1] [µM],IC50 [2] [µM],IC50 [3] [µM],IC50 [4] [µM],inhibition in vivo at 10 mg/kg [5] [%],Activity [6] [%]
COc1cc(Nc2ccnc(-c3ccc(C)cc3)n2)cc(OC)c1OC,1.85,5.77,2.14,7.62,,
COc1cc(NC(=O)c2ccnc(-c3ccc(C)cc3)n2)cc(OC)c1OC,> 50,> 50,6.08,> 50,,
COc1ccc(-c2nccc(Nc3cc(OC)c(OC)c(OC)c3)n2)cn1,> 50,> 50,3.09,> 50,,
COc1cc(Nc2nc(-c3ccccc3)nc3ccccc23)cc(OC)c1OC,0.807,4.89,3.96,0.884,,
COc1ccc(-c2nccc(Nc3cc(OC)c(OC)c(OC)c3)n2)cc1,1.22,7.27,2.22,2.69,,
COc1ccc(-c2nc(Nc3cc(OC)c(OC)c(OC)c3)c3ccccc3n2)cc1OC,> 50,> 50,5.6,0.331,,
COc1cc(NC(=O)c2ccnc(-c3ccccc3)n2)cc(OC)c1OC,2.32,> 50,5.38,> 50,,
COc1cc2c(c(OC)c1OC)-c1ccc(OC)c(=O)cc1[C@@H](NC(C)=O)CC2 [COLCHICINE],0.038,0.031,0.507,0.079,72.8,33.68
COc1cc(Nc2ccnc(-c3ccc4c(cnn4C)c3)n2)cc(OC)c1OC,1.46,1.13,0.598,1.85,,
COc1cc(NC(=O)c2ccnc(-c3cccc4c3ccn4C)n2)cc(OC)c1OC,1.1,1.89,3.09,2.28,,
COc1cc(Nc2ccnc(-c3cccc4c3cnn4C)n2)cc(OC)c1OC,5.92,7.12,5.55,4.57,,
COc1ccc(-c2nc(Nc3cc(OC)c(OC)c(OC)c3)c3ccccc3n2)cc1,> 50,> 50,> 50,> 50,,
COc1cc(Nc2nc(-c3ccc4c(cnn4C)c3)nc3ccccc23)cc(OC)c1OC,3.14,3.33,6.47,1.78,,
COc1cc(Nc2ccnc(-c3ccc4c(ccn4C)c3)n2)cc(OC)c1OC,4.9,5.31,2.31,1.82,,
COc1cc(Nc2ccnc(-c3ccc(F)cc3)n2)cc(OC)c1OC,7.94,> 50,6.51,8.25,,
COc1cc(Nc2nc(-c3cccc4c3ccn4C)nc3ccccc23)cc(OC)c1OC,0.547,0.877,1.35,0.784,,
COc1cc(Nc2nc(-c3ccc(F)cc3)nc3ccccc23)cc(OC)c1OC,> 50,> 50,> 50,> 50,,
COc1cc(NC(=O)c2ccnc(-c3ccc(C(F)(F)F)cc3)n2)cc(OC)c1OC,> 50,> 50,> 50,> 50,,
COc1cc(Nc2ccnc(-c3ccc(O)c(C)c3)n2)cc(OC)c1OC,6.53,6.74,1.08,4.97,,
COc1cc(Nc2nc(-c3ccc(C)cc3)nc3ccccc23)cc(OC)c1OC,2.44,> 50,1.83,> 50,,
COc1cc(NC(=O)c2ccnc(-c3ccc4c(c3)OCCO4)n2)cc(OC)c1OC,> 50,> 50,3.11,> 50,,
COc1cc(Nc2ccnc(-c3cc(OC)c(OC)c(OC)c3)n2)cc(OC)c1OC,> 50,> 50,> 50,> 50,,
COc1cc(Nc2nc(-c3cc(OC)c(OC)c(OC)c3)nc3ccccc23)cc(OC)c1OC,0.781,2.94,0.396,0.132,,
COc1cc(Nc2ccnc(-c3ccc(C#N)cc3)n2)cc(OC)c1OC,4.33,> 50,4.76,> 50,,
COc1ccc(-c2nccc(C(=O)Nc3cc(OC)c(OC)c(OC)c3)n2)cc1OC,> 50,> 50,> 50,> 50,,
COc1cc(Nc2ccnc(-c3ccccc3)n2)cc(OC)c1OC,9.2,> 50,4.08,7.2,,
